Structures are written as SMILES.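 How tested: cells in 96-well plates exposed to compound for 48 hours at five concentrations. At the GI50, growth is halved.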 The source made the active and inactive calls. Cut-off read from the data, not from the text of the source: active = GI50 up to about 1.1 µM and inactive = higher. Positions of bridges follow the written chain, without caps; N, C: chain ends. Residues, ends and D or L forms follow the SMILES beside them.

The record followed here is ChEMBL document CHEMBL1201862, “PubChem BioAssay data set” (2004).

Test systems include A498; COLO 205; HCT-116; HOP-92; IGROV-1; MDA-MB-231; MDA-N; MOLT-4; Malme-3M; NCI-H23; NCI-H522; OVCAR-8; PC-3; RXF 393; T47D; TK-10; UACC-62; UO-31; ACHN; NCI/ADR-RES.
Test in all cases: growth of human tumour cells (NCI), 48 h

With `Cc1cc(N(CCC#N)S(=O)(=O)c2ccccc2)ccc1/C=N/c1ccc(C(=O)O)cc1`, the GI50 in the experiment with A498 is 29.6 µM (inactive); in the experiment on COLO 205, 6.41 µM (inactive); with HCT-116, 7.87 µM (inactive); with HOP-92, > 100 µM (inactive); in the experiment on IGROV-1, 30 µM (inactive); with MDA-MB-231, > 100 µM (inactive). Further, the GI50 with MDA-N is > 100 µM (inactive); with MOLT-4, 6.98 µM (inactive); with Malme-3M, 4.61 µM (inactive); in the experiment with NCI-H23, 16.1 µM (inactive); with NCI-H522 it was 5.51 µM (inactive); in the experiment on OVCAR-8, 7.71 µM (inactive). In addition, the GI50 in the experiment on PC-3 was > 100 µM (inactive); with RXF 393 it was 1.7 µM (inactive); in the experiment with T47D, > 100 µM (inactive); in the experiment with TK-10, 8.73 µM (inactive); in the experiment on UACC-62 it was 17.4 µM (inactive); in the experiment with UO-31, 11.1 µM (inactive).

`CCN(CC)Cc1cc(Nc2c3ccccc3nc3c2[nH]c2ccccc23)cc(CN(CC)CC)c1O`: the GI50 with A498 is 1.53 µM (inactive); in the experiment on ACHN, 0.634 µM (active); in the experiment on COLO 205, 0.366 µM (active); with HCT-116, 0.33 µM (active); in the experiment with HOP-92 it was 1.14 µM (inactive); in the experiment with IGROV-1, 0.861 µM (active). In addition, the GI50 was 1.05 µM (active) in the experiment on MDA-MB-231; 0.815 µM (active) with MDA-N; 1.11 µM (active) in the experiment on NCI-H23; 0.624 µM (active) with NCI-H522; 0.5 µM (active) with OVCAR-8; 0.64 µM (active) in the experiment with PC-3. In addition, the GI50 in the experiment on RXF 393 was 0.28 µM (active); with T47D, 2.67 µM (inactive); in the experiment on TK-10, 2.42 µM (inactive); with UACC-62 it was 1.55 µM (inactive); with UO-31 it was 1.68 µM (inactive).

In the case of `O=C(COc1ccc(OCC(=O)N2C(=O)CS/C2=N\c2ccccc2)cc1)N1C(=O)CS/C1=N\c1ccccc1`, the GI50 in the experiment with A498 was 60 µM (inactive); in the experiment on ACHN, 12.5 µM (inactive); in the experiment on COLO 205, 20.5 µM (inactive); in the experiment on HCT-116, 10.6 µM (inactive); with HOP-92, 26.2 µM (inactive); in the experiment with IGROV-1, 2.38 µM (inactive). Also, the GI50 with MDA-MB-231 was 15.6 µM (inactive); in the experiment on MDA-N it was 20.7 µM (inactive); in the experiment with MOLT-4, 14.6 µM (inactive); in the experiment with Malme-3M, 4 µM (inactive); in the experiment on NCI-H23, 19.5 µM (inactive); in the experiment on NCI-H522 it was 11.1 µM (inactive). Further, the GI50 with NCI/ADR-RES is 19.5 µM (inactive); in the experiment on PC-3, 14.8 µM (inactive); with RXF 393, 30.3 µM (inactive); with TK-10, 56.9 µM (inactive); in the experiment with UACC-62, 8.13 µM (inactive); in the experiment on UO-31 it was 25.2 µM (inactive).

On to `Cc1cccc(NC(=S)Nc2ccccc2Cl)n1`, for which the GI50 in the experiment on A498 is 24.9 µM (inactive); in the experiment with COLO 205, > 100 µM (inactive); in the experiment with HCT-116, > 100 µM (inactive); in the experiment on IGROV-1 it was 30.1 µM (inactive); with MDA-N, > 100 µM (inactive); with MOLT-4, > 100 µM (inactive). Also, the GI50 was 38 µM (inactive) in the experiment with Malme-3M; 49 µM (inactive) with NCI/ADR-RES; 29.6 µM (inactive) in the experiment on OVCAR-8; > 100 µM (inactive) in the experiment with PC-3; 20.7 µM (inactive) in the experiment on RXF 393; 29 µM (inactive) in the experiment on T47D. Moreover, the values for the GI50 with TK-10, in the experiment with UACC-62 and with UO-31 were 34.8 µM (inactive), 41 µM (inactive) and > 100 µM (inactive), respectively.

Take `CN1C(=O)N(C)C2(CCN(CCCCCCF)CC2)C1=O`: the GI50 with ACHN, with COLO 205, in the experiment on HCT-116, in the experiment with IGROV-1, with MDA-MB-231 and with MDA-N was > 100 µM (inactive) each time. Also, the GI50 is > 10 µM (inactive) in the experiment with MOLT-4; > 100 µM (inactive) with Malme-3M; > 100 µM (inactive) in the experiment with NCI-H23; > 100 µM (inactive) in the experiment on NCI-H522; > 100 µM (inactive) with NCI/ADR-RES; > 100 µM (inactive) in the experiment on OVCAR-8. In addition, the GI50 in the experiment on PC-3, in the experiment on RXF 393, with T47D, in the experiment with TK-10, in the experiment with UACC-62 and in the experiment with UO-31 was > 100 µM (inactive) throughout.

Regarding `Cc1nc2ccc(F)cc2c2c1CCN2c1ccc(Cl)cc1`, the GI50 in the experiment with A498 was 20.9 µM (inactive); with ACHN it was 13.7 µM (inactive); in the experiment on COLO 205 it was 6.71 µM (inactive); in the experiment on HCT-116 it was 4.52 µM (inactive); with HOP-92 it was 2.69 µM (inactive); with IGROV-1, 7.73 µM (inactive). Further, the GI50 in the experiment on MDA-MB-231 is 4.04 µM (inactive); with MDA-N, 4.25 µM (inactive); with Malme-3M, 10.7 µM (inactive); in the experiment with NCI-H23, 5.15 µM (inactive); with NCI-H522, 6.78 µM (inactive); in the experiment on NCI/ADR-RES it was 4.88 µM (inactive). Also, the GI50 in the experiment with OVCAR-8 is 9.71 µM (inactive); in the experiment with PC-3, 3.85 µM (inactive); in the experiment with RXF 393 it was 18 µM (inactive); in the experiment with TK-10 it was 9.4 µM (inactive); in the experiment on UACC-62, 10.9 µM (inactive); with UO-31, 5.45 µM (inactive).

`COc1cccc(/C=C2\S/C(=N/Nc3nc(C)c(C)s3)NC2=O)c1O`: the GI50 with A498 is > 100 µM (inactive); with ACHN it was > 100 µM (inactive); in the experiment on COLO 205 it was > 100 µM (inactive); in the experiment with HCT-116 it was > 100 µM (inactive); in the experiment with HOP-92, > 100 µM (inactive); in the experiment with IGROV-1 it was 34.3 µM (inactive). Besides, the GI50 with MDA-MB-231 was > 100 µM (inactive); with MDA-N it was > 100 µM (inactive); in the experiment with MOLT-4 it was 49.3 µM (inactive); with NCI-H23, > 100 µM (inactive); in the experiment on NCI/ADR-RES, > 100 µM (inactive); in the experiment on OVCAR-8, 36.6 µM (inactive). Also, the GI50 with RXF 393 was 79.4 µM (inactive); in the experiment on T47D, 19 µM (inactive); in the experiment on TK-10, > 100 µM (inactive); in the experiment with UACC-62, 69.5 µM (inactive); in the experiment on UO-31, 74.1 µM (inactive).

For `C=CC1(C)CCC2C(=CCC3C(C)(COC4OC(C(=O)O)C(O)C(O)C4O)C(O)CCC23C)C1.C=CC1(C)CCC2C(=CCC3C2(C)CC(O)C(O)C3(C)COC2OC(C(=O)O)C(O)C(O)C2O)C1` (stereo unspecified), the GI50 in the experiment on A498, in the experiment with ACHN, in the experiment with COLO 205, in the experiment with HCT-116, in the experiment with HOP-92 and with IGROV-1 was > 100 µM (inactive) each time. For the same compound, the GI50 in the experiment with MDA-MB-231 was > 100 µM (inactive); in the experiment on MDA-N, > 100 µM (inactive); in the experiment on MOLT-4 it was 13.3 µM (inactive); in the experiment on Malme-3M it was > 100 µM (inactive); in the experiment on NCI-H23, > 100 µM (inactive); in the experiment with NCI-H522, > 100 µM (inactive). The GI50 in the experiment on OVCAR-8 was > 100 µM (inactive); in the experiment with PC-3, 80.4 µM (inactive); in the experiment with RXF 393 it was > 100 µM (inactive); with T47D it was > 100 µM (inactive); with TK-10, 46.1 µM (inactive); in the experiment on UACC-62, > 100 µM (inactive). For the same compound, the GI50 with UO-31 was > 100 µM (inactive).

For the compound `O=C1CCCCC/C1=C\c1ccc(Cl)cc1`, the GI50 in the experiment on A498 was 33 µM (inactive); in the experiment on ACHN, 32.1 µM (inactive); with COLO 205, 18.2 µM (inactive); in the experiment on HCT-116, 35.4 µM (inactive); in the experiment on HOP-92 it was 35.7 µM (inactive); in the experiment with IGROV-1, 67.6 µM (inactive). For the same compound, the GI50 in the experiment with MDA-MB-231 is 73.6 µM (inactive); in the experiment with MDA-N it was 28.6 µM (inactive); with MOLT-4, 26.2 µM (inactive); in the experiment on Malme-3M, 52.6 µM (inactive); with NCI-H23, 31.6 µM (inactive); with NCI-H522, 25.4 µM (inactive). Further, the GI50 in the experiment on PC-3 was 19.9 µM (inactive); with T47D, 37.3 µM (inactive); in the experiment on TK-10, 28.1 µM (inactive); in the experiment with UACC-62 it was 25.2 µM (inactive); with UO-31, 27.2 µM (inactive).

For `CCSc1nc(-c2cccs2)nc2ccc(I)cc12`, the GI50 in the experiment on ACHN, in the experiment on COLO 205, in the experiment on HCT-116, in the experiment on IGROV-1, in the experiment with MDA-N and with MOLT-4 was > 100 µM (inactive) in each case. In addition, the GI50 in the experiment with NCI-H23, in the experiment on NCI-H522, in the experiment on NCI/ADR-RES, in the experiment on OVCAR-8, in the experiment on PC-3 and with RXF 393 was > 100 µM (inactive) each time. The GI50 was 1.5 µM (inactive) with T47D, 39.6 µM (inactive) with TK-10, > 100 µM (inactive) in the experiment on UACC-62 and > 100 µM (inactive) with UO-31.

Regarding `COC(=O)C1CCC(=O)NCCCCC(NC(=O)C(N)CC(=O)O)C(=O)N1` (stereo not drawn) (H-Asp-Lys-Glu-OMe; lactam 2-3; configuration not given here), the GI50 with ACHN was 41.2 µM (inactive); in the experiment on COLO 205 it was > 100 µM (inactive); with HCT-116 it was 60 µM (inactive); in the experiment on IGROV-1, > 100 µM (inactive); in the experiment with MDA-MB-231, > 100 µM (inactive); in the experiment on MDA-N, > 100 µM (inactive). The GI50 in the experiment with MOLT-4 is > 100 µM (inactive); in the experiment with Malme-3M it was > 100 µM (inactive); in the experiment with NCI-H23, 92.5 µM (inactive); in the experiment with NCI-H522 it was > 100 µM (inactive); with NCI/ADR-RES it was > 100 µM (inactive); with OVCAR-8, > 100 µM (inactive). The GI50 with PC-3 was > 100 µM (inactive); in the experiment on RXF 393, > 100 µM (inactive); with T47D, > 100 µM (inactive); in the experiment on TK-10 it was > 100 µM (inactive); in the experiment with UACC-62, 28.2 µM (inactive); in the experiment with UO-31 it was > 100 µM (inactive).
